Measured values taken from US20240207159A1, “SKIN PENETRATION IMPROVER” (KANEKA CORPORATION, priority 2021, published 2024).

Experiments:
Type in all cases: in vitro ADME, human
[1] = Transdermal absorption test using cosmetics component (Franz diffusion cell, tape stripping, HPLC); settings: for Penetration amount into epidermis/dermis (%) / Penetration amount into stratum corneum (%) / Wiping + first layer (%): 2 mg/cm^2, 6 hours; for Penetration amount into epidermis/dermis (%) / Penetration amount into stratum corneum (%) / Wiping + first layer (%) / Passing amount (%): ratio to 100 as total retrieved amount; for Passing amount (%): receptor liquid, 6 hours; for skin penetration property into the skin: combination of surfactin and a phospholipid in comparison with the aqueous solution
Method: The skin penetration properties of niacinamide and arbutin, which are often mixed in cosmetics as active ingredients, were evaluated by a similar test to Example 1. A circle human skin sample having a thickness of about 700 μm was attached to a test cell of an In vitro transdermal penetration test device (“TransView C12” manufactured by CosMED). The test cell is an open system Franz diffusion cell having an effective diameter of 2.0 cm, an area of 3.14 cm- and a receptor liquid volume of 2.4 mL. An electrical resistance value was measured to confirm that there were not any problems with the sample. Then, the test cell was filled with a phosphate buffer solution of pH 7.0 as a receptor liquid. The phosphate buffer solution of pH 7.0 containing 2 mass % surfactin sodium salt (SF), 1 mass % natural lecithin and 5 mass % active ingredient was applied to the skin sample at a rate of 2 mg/cm^2, and the skin sample was installed at the test device of which temperature was maintained at 32° C. to start the test. A phosphate buffer solution containing 5 mass % active ingredient was concurrently subjected to the test as control.
(§1) The skin sample was taken out of the test cell 6 hours after the start of the test, and the surface was wiped using cotton. Then, the first round of tape stripping, hereinafter referred to as “TS”, was conducted using a dedicated tape, hereinafter referred to as “tape”. Specifically, the tape was attached to the skin sample and then peeled. A mixed solvent (15 mL) of ethanol:water=1:1 by v/v was added thereto, and ultrasonic wave was applied to the mixture for 1 hour for extraction. The obtained liquid was retrieved, and the above-described mixed solvent was added thereto to adjust the total amount to 20 mL as an analytic sample of “wiping+first layer”.
(§2) Then, the second or later round of TS were conducted. The number of the total times of TS was 15 at a maximum, and the number of times was adjusted depending on the condition of the skin sample surface. The tapes of second or later round were combined, and the extraction using aqueous ethanol and the total amount adjustment were conducted in a similar condition to the above to prepare an analytic sample of “penetration amount into stratum corneum”.
(§3) In addition, the remaining skin sample was finely cut and divided into two tubes for crushing. Water (0.5 mL) was added into each tube, and the skin was crushed using a crushing machine for 20 minutes. The liquid containing the crushed skin was retrieved from two tubes into one centrifuge test. Then, ethanol (12 mL) was added thereto, and the mixture was efficiently stirred and centrifuged to obtain a supernatant. Water was added to the obtained supernatant to adjust the total amount to 20 mL to prepare an analytic sample of “penetration amount into epidermis/dermis”.
(§4) The receptor liquid was also retrieved, and water was added thereto to adjust the total amount to 20 mL to prepare an analytic sample of “passing amount”. The amounts of each active ingredient in each obtained solution were measured by HPLC.
The amounts of the active ingredients retrieved from each sample of the above-described “wiping+first layer”, “penetration amount into stratum corneum”, “penetration amount into epidermis/dermis” are shown in Table 1 as ratios to 100 as the total amount retrieved from 4 samples.

[2] = Effect of concentrations of phospholipid and surfactin on penetration of active ingredient (transdermal absorption test); settings: 5 mass % niacinamide
Method: A circle human skin sample having a thickness of about 700 μm was attached to a test cell of an In vitro transdermal penetration test device (“TransView C12” manufactured by CosMED). The test cell is an open system Franz diffusion cell having an effective diameter of 2.0 cm, an area of 3.14 cm- and a receptor liquid volume of 2.4 mL. An electrical resistance value was measured to confirm that there were not any problems with the sample. Then, the test cell was filled with a phosphate buffer solution of pH 7.0 as a receptor liquid. The phosphate buffer solution of pH 7.0 containing 2 mass % surfactin sodium salt (SF), 1 mass % natural lecithin and 5 mass % active ingredient was applied to the skin sample at a rate of 2 mg/cm^2, and the skin sample was installed at the test device of which temperature was maintained at 32° C. to start the test.
as §1, §2, §3, §4
The condition of Example 2 was used as a benchmark of the concentrations of a phospholipid and surfactin in the samples applied to the skin, and the concentration, the ½ concentration thereof and the 1/10 concentration thereof were tested. All of the concentrations of niacinamide in the samples were adjusted to 5 mass %. The ratio of the active ingredient amounts in each sample to 100 of the total retrieved amount are shown.

[3] = Transdermal absorption test of water-soluble fluorescent dye (Franz diffusion cell, fluorescence microscopy of frozen section); settings: 6 hours
Method: A circle human skin sample having a thickness of about 700 μm was attached to a test cell of an In vitro transdermal penetration test device (“TransView C12” manufactured by CosMED). The test cell was an open system Franz diffusion cell having an effective diameter of 1.7 cm, an area of 2.27 cm^2 and a receptor liquid volume of 5.75 mL. An electrical resistance value was measured to confirm that there was not any problems with the sample. Then, the test cell was filled with a phosphate buffer solution of pH 7.0 as a receptor liquid. The phosphate buffer solution of pH 7.01 (500 μL) containing 1.5 mass % surfactin sodium salt (SF), 1 mass % phospholipid (DMPC: 1,2-dimyristoyl-sn-glycero-3-phosphocholine) and 10 mM water-soluble fluorescent dye (calcein) was applied to the skin sample, and the skin sample was installed at the test device of which temperature was maintained at 32° ° C. to start the test.
In addition, similar tests were conducted for comparison using a PBS solution of pH 7.09 containing 10 mM water-soluble fluorescent dye, a PBS solution of pH 6.99 containing 10 mM water-soluble fluorescent dye+1.5 mass % SF, and a PBS solution of pH 7.08 containing 10 mM water-soluble fluorescent dye+1 mass % phospholipid.
The skin sample was cut 6 hours after the start of the test, embedded in O. C. T. Compound, cooled using cooled acetone to be frozen, and sliced to prepare a frozen section. The cut surface was observed using a fluorescence microscope. Separately, the used human skin sample was dyed using hematoxylin-eosin and observed under magnification.
The result of the human skin sample is shown in FIG. 1, the result of the 10 mM water-soluble fluorescent dye PBS solution is shown in FIG. 2A, the result of the 10 mM water-soluble fluorescent dye+1.5 mass % SF PBS solution is shown in FIG. 2B, the result of the 10 mM water-soluble fluorescent dye+1 mass % phospholipid PBS solution is shown in FIG. 2C, and the result of the 10 mM water-soluble fluorescent dye+1 mass % phospholipid+1.5 mass % SF PBS solution is shown in FIG. 2D.

[4] = Control: phosphate buffer solution containing 5 mass % active ingredient, 32 °C
[5] = Control: phosphate buffer solution containing 5 mass % active ingredient
[6] = Example: 2 mass % SF + 1 mass % natural lecithin + 5 mass % active ingredient, phosphate buffer pH 7.0
[7] = Example: 2 mass % surfactin sodium salt (SF) + 1 mass % natural lecithin + 5 mass % active ingredient, phosphate buffer pH 7.0
[8] = 1/10 conc. of phospholipid and surfactin of Example 2
[9] = Control, ratio to 100 of total retrieved amount
[10] = Example: phospholipid and surfactin at the concentration of Example 2
[11] = ½ conc. of phospholipid and surfactin of Example 2

OC[C@H]1O[C@@H](Oc2ccc(O)cc2)[C@H](O)[C@@H](O)[C@@H]1O [Arbutin, arbutin]
Penetration amount into epidermis/dermis (%) [1, 4]: 0%
Penetration amount into stratum corneum (%) [1, 4]: 5%
Wiping + first layer (%) [1, 4]: 95%
Passing amount (%) [1, 5]: 0%
Penetration amount into epidermis/dermis (%) [1, 6]: 23%
Penetration amount into stratum corneum (%) [1, 6]: 25%
Passing amount (%) [1, 6]: 0%
Wiping + first layer (%) [1, 7]: 52%
skin penetration property into the skin [1]: remarkably improved

NC(=O)c1cccnc1 [Niacinamide, niacinamide]
Passing amount (%) [2, 8]: 15%
Penetration amount into epidermis/dermis (%) [2, 8]: 18%
Penetration amount into stratum corneum (%) [2, 8]: 26%
Wiping + first layer (%) [2, 8]: 41%
Passing amount (%) [2, 9]: 15%
Penetration amount into epidermis/dermis (%) [2, 9]: 8%
Penetration amount into stratum corneum (%) [2, 9]: 11%
Wiping + first layer (%) [2, 9]: 65%
Passing amount (%) [2, 10]: 39%
Penetration amount into epidermis/dermis (%) [2, 10]: 18%
Penetration amount into stratum corneum (%) [2, 10]: 23%
Wiping + first layer (%) [2, 10]: 19%
Passing amount (%) [2, 11]: 15%
Penetration amount into epidermis/dermis (%) [2, 11]: 18%
Penetration amount into stratum corneum (%) [2, 11]: 23%
Wiping + first layer (%) [2, 11]: 44%
Penetration amount into epidermis/dermis (%) [1, 4]: 5%
Penetration amount into stratum corneum (%) [1, 4]: 7%
Wiping + first layer (%) [1, 4]: 89%
Passing amount (%) [1, 5]: 0%
Penetration amount into epidermis/dermis (%) [1, 6]: 37%
Penetration amount into stratum corneum (%) [1, 6]: 39%
Passing amount (%) [1, 6]: 0%
Wiping + first layer (%) [1, 7]: 24%
skin penetration property into the skin [1]: remarkably improved

O=C(O)CN(CC(=O)O)Cc1cc2c(cc1O)Oc1cc(O)c(CN(CC(=O)O)CC(=O)O)cc1C21OC(=O)c2ccccc21 [water-soluble fluorescent dye, calcein]
skin penetration of the water-soluble fluorescent dye (fluorescence microscope, cut surface) ([3]; PBS solution pH 6.99, 10 mM dye + 1.5 mass % SF (surfactin sodium salt), FIG. 2B): reached deeper epidermal tissue than the stratum corneum but mainly remained in the stratum corneum
skin penetration of the water-soluble fluorescent dye (fluorescence microscope, cut surface) ([3]; PBS solution pH 7.08, 10 mM dye + 1 mass % phospholipid (DMPC), FIG. 2C): reached deeper epidermal tissue than the stratum corneum but mainly remained in the stratum corneum
skin penetration of the water-soluble fluorescent dye (fluorescence microscope, cut surface) ([3]; PBS solution pH 7.09, 10 mM dye only, 32 °C, FIG. 2A): remained on the surface and could not infiltrate the deeper area than the stratum corneum
skin penetration of the water-soluble fluorescent dye (fluorescence microscope, cut surface) ([3]; phosphate buffer pH 7.01, 10 mM dye + 1 mass % phospholipid (DMPC) + 1.5 mass % SF, FIG. 2D): clearly infiltrated the epidermal tissue and also reached the dermis
